Like-named read-outs stand apart in the source and are kept apart here.
How the values were obtained:
[1] = tested on: PGK1; assay: 2D-PAGE proteomic analysis of treated A549 cells, PGK1 spot; format: cell-based, human; details: A549, 25 µM, 24 h
Method: (§1) A549 cells were therefore treated with either vehicle (0.025% DMSO), or with 25 μM of andrographolide or ZAD-1, and at 24 h post-treatment, proteins were prepared and subjected to two-dimension polyacrylamide gel electrophoresis (2D-PAGE). The experiment was undertaken independently in triplicate and representative gels are shown Figure 5, with all replicates being shown in Supplementary Figure S12. […] All of these protein spots were cut from the gels and then subjected to in-gel tryptic digestion followed by mass spectrometry. MASCOT (Matrix Science Inc., Boston, MA, USA) search of the resultant masses identified 4 proteins (Table 3), namely heat shock protein 70 kDa 1A (HSPA1A), phosphoglycerate kinase 1 (PGK1), transketolase (TKT) and nuclear transport protein of GTP-binding nuclear protein Ran (Ran).
(§2) 2D-PAGE and mass spectroscopic identification of differentially expressed spots was undertaken essentially as previously described. […] Image data were analyzed using Image Master™ 2D Platinum software version 7.0 (GenBio, Geneva, Switzerland). Each spot was evaluated on intensity, volume and area. […] After tryptic in-gel digestion, peptide masses were determined by LC-MS/MS using SYNAPT high definition MS (HDMS) (Waters Corp., Milford, MA, USA).

[2] = tested on: Ran; assay: 2D-PAGE proteomic analysis of treated A549 cells, Ran spot; format: cell-based, human; details: A549, 25 µM, 24 h
Method: as §1, §2

[3] = tested on: DENV 2; assay: DENV 2 viral production in HEK293T/17 cells by standard plaque assay; format: cell-based, dengue virus; details: for Selective Index (SI): DENV, CC50 and EC50 in HEK293T/17 cells; for EC50: Dengue virus, read-out: EC50 against DENV 2 infection; for DENV 2 viral production, concentration dependence: HEK293T/17, MOI 5, 1 to 100 µM
Method: The effects of the compounds on DENV-2 infection were evaluated using HEK293T/17 as host cells at MOI of 5. The cells were infected with DENV 2 for 2 h and then the cells were incubated with the compounds at non-cytotoxic (or morphology altering) concentrations of 10 and 25 μM of ZAD-1 and ZAD-3, or 25 and 50 μM of ZAD-2, or 50 and 75 μM of andrographolide or 0.1% DMSO vehicle control. After 24 h of treatment, cells were harvested for determination of the percentage of infection by flow cytometry, while the culture supernatants were collected to determine the viral production.
(§3) Thus, the EC50 values of ZAD-1 and andrographolide were determined against ZIKV and DENV 2. For ZIKV, A549 cells were infected with ZIKV at MOI 5 and after 2 h of infection, the cells were incubated with ZAD-1 or andrographolide at a range of concentrations (1 to 100 µM) for 24 h, after which the supernatants were collected for determination of EC50 values by standard plaque assay. Both ZAD-1 and andrographolide reduced viral production in a dose-dependent manner (Figure 4A). […] For DENV 2, HEK293T/17 cells were infected with DENV 2 at MOI 5 for 2 h and followed by incubation with ZAD-1 or andrographolide at a range of concentrations (1 to 100 µM) for 24 h. […] The EC50 value for andrographolide in DENV infection is consistent with our previous study undertaken in HepG2 and HeLa cells with the same virus.
(§4) DENV 2 (strain 16681) and ZIKV (strain SV0010/15) virus stocks were propagated in C6/36 cells previously described, and virus titers were determined by standard plaque assay as described previously using Vero cells for ZIKV and LLC-MK2 cells for DENV.
(§5) HEK293T/17 or A549 cells were cultured in six-well plates under standard conditions until the cells reached 80% confluence. HEK293T/17 cells were infected with DENV 2, while A549 cells were infected with ZIKV Thai strain at MOI 5 for 2 h at 37 °C and 5% CO2 in culture medium without FBS. Mock infection was undertaken in parallel. After the infection period, the medium was removed and replaced with complete medium (including FBS) containing 0.1% DMSO (no treatment control) or the appropriate concentration of each compound and cells were again incubated under standard conditions. At 24 h post-treatment, cells were harvested for determination of effects of compounds on percentage of infection and supernatant was collected for determination of viral productivity. All experiments were undertaken independently in triplicate with duplicate plaque assay.

[4] = tested on: ZIKV; assay: ZIKV viral production in A549 cells by standard plaque assay; format: cell-based, Zika virus; details: for ZIKV viral production, concentration dependence: A549, MOI 5, 1 to 100 µM; for Selective Index (SI): ZIKV, CC50 and EC50 in A549 cells; for EC50: Zika virus, A549 cells, MOI 5, 24 h treatment post-infection, plaque assay, read-out: EC50 against ZIKV infection
Method: To confirm the effects of andrographolide and the andrographolide analogues on ZIKV infection, A549 cells were infected with ZIKV at MOI of 5 for 2 h, and subsequently treated with the compounds at concentrations of 10 and 25 μM or with vehicle for 24 h. The cells were harvested for determination of the percentage of infection by flow cytometry, while the supernatants were collected for determination of viral titer by standard plaque assay.
as §3, §4, §5

With `C=C1CC[C@@H]2[C@]3(C)COC(C)(C)O[C@@H]3CC[C@@]2(C)[C@@H]1C/C=C1/C(=O)OC[C@@H]1Oc1c(Cl)cc(Cl)c2ccc(C)nc12` [ZAD-1] the “Intensity Level, spot 3 PGK1” value [1] was 2509.31, the “Intensity Level, spot 4 Ran” value [2] was 2096.79 and the “Selective Index (SI)” value [3] was 6.6. For the same compound, the EC50 ([3]; HEK293T/17 cells, MOI 5, 24 h treatment post-infection, plaque assay) was 22.6 ± 1.8 µM, the “DENV 2 viral production, comparison among compounds” value ([3]; HEK293T/17, MOI 5, 25 µM, 24 h) was “greatest reduction” and the “DENV 2 viral production, concentration dependence” value ([3]; 24 h) was “dose-dependent reductions”. For the same compound, the “inhibitory effect on ZIKV infection, comparison among compounds” value ([4]; A549, MOI 5, 25 µM, 24 h) was “greatest inhibitory effect”, the “ZIKV viral production, concentration dependence” value ([4]; 24 h) was “dose-dependent” and the “Selective Index (SI)” value [4] was 9.8. It also gave an EC50 [4] of 27.9 ± 1.7 µM.
With `C=C1CC[C@@H]2[C@](C)(CO)[C@H](O)CC[C@@]2(C)[C@@H]1C/C=C1/C(=O)OC[C@H]1O` [Andrographolide] the “Intensity Level, spot 3 PGK1” value [1] was 1053.31, the “Intensity Level, spot 4 Ran” value [2] was 698.483 and the “Selective Index (SI)” value [3] was 8.4. The EC50 ([3]; HEK293T/17, 24 h) was 35.2 ± 2.5 µM, the “DENV 2 viral production, concentration dependence” value ([3]; 24 h) was “dose-dependent reductions” and the “ZIKV viral production, concentration dependence” value ([4]; 24 h) was “dose-dependent”. For the same compound, the “Selective Index (SI)” value [4] was 6.6 and the EC50 [4] was 31.8 ± 3.5 µM.

Source: PMC7662321, “Andrographolide and Its 14-Aryloxy Analogues Inhibit Zika and Dengue Virus Infection” (Molecules, 2020)
